Test results: patent publication US20240108570A1, “METHOD AND COMPOSITION FOR DELIVERING A COMPOUND THROUGH A BIOLOGICAL BARRIER” (priority 2012, published 2024)

Columns and labels:
[1] = test system: freshly excised, non-diseased human skin; type: in vitro ADME
Description: The results are illustrated in FIGS. 5 to 8.
FIGS. 7 and 8 illustrate the effect of application forces on the penetration of sodium fluorescein in conjunction with ‘long’ EMPs. Measurements were made 15 minutes after application to freshly excised, non-diseased human skin (from female, Caucasian, abdominal plastic surgery patients). […] Application forces of 0.2N, 5N and 10N were all applied using a gloved finger on a scale. The excised skin is place on the scale and the finger is applied to the EMPs/skin until a weight is achieved on the scale corresponding to either 0.2, 5 or 10 N.) All forces are effective in improving penetration of sodium fluorescein into the stratum spinosum. There was an apparent optimum application force of 5N under the conditions of the tests.

[2] = test system: ex vivo pig skin; type: in vitro ADME
Description: FIG. 12 represents comparison of delivery of sodium fluorescein to ex vivo pig skin. Pig skin was sourced and prepared for drug treatment as described for FIG. 10. For EMP delivery, 50 μL of the payload solution (1 mg/mL sodium fluorescein) was gently mixed with or without 5 mg of either the ‘short’ or ‘long’ EMP preparations. The samples were then scraped onto the surface of the skin. Administration was achieved by massaging the solution for 30 s using small circular motions within a 3 cm 2 circular area. To maintain consistency between administrations, a small hand-held applicator was designed resulting in an application force of 0.25 N (as described in AU2012905650). After administration, the payload was left on the skin for 5 min followed by removal of excess solution with cotton swabs. The centre of the application area was excised using a 6 mm circular punch biopsy. A total of 6 samples were done per group. Each sample was stored at −20° C. prior to analysis. […] FIG. 12d represents fluorescence confocal microscopy mosaic images of the pig skin with topical application of sodium fluorescein only (no EMP). […] The images in FIGS. 12d to 12l have been pseudo-colored in greyscale, where black corresponds to 0 (min) fluorescence intensity and white corresponds to 255 (max) fluorescence intensity, as shown on the scale superimposed on FIG. 12l.

[3] = test system: in vivo pig skin
Description: FIG. 13 represents comparison of delivery of sodium fluorescein to in vivo pig skin. In vivo experiments were conducted on 6 female Landrace weaner pigs weighing approx. 10-15 kg (Centre for Advanced Animal Science, The University of Queensland Gatton Campus, Australia). The pigs were anaesthetized intramuscularly by co-administration of Butorphanol (0.15 mg/kg) and Zoletil (5 mg/kg) followed by intubation with isoflurane to maintain unconsciousness. Following anesthesia the flanks of the pigs were washed with soapy water and patted dry. The flank was then shaved gently using an electric razor. The flank was marked, to separate the application areas (2 cm diameter circles, 2 cm apart). Payload administration and amounts were done using the same parameters as for ex vivo. After all the groups/samples were applied and swabbed, the pig was turned over and the procedure repeated to the other flank (resulting in 12 samples per group). Finally, the pig was culled and the center of the application areas was excised using a 6 mm circular punch biopsy. Each sample was placed on dry-ice followed by storage at −20° C. prior to analysis.

[4] = test system: volar forearm skin of human volunteers; details: in vivo
Source text: In both Examples 4 and 5, elongate microparticles (EMPs) were fabricated from silicon using deep reactive ion etching. Lithography was used to pattern a silicon wafer that was then coated with SU-8 photoresist. After a post exposure bake, the resist was developed in […]. The SU8 structures remaining served as a physical mask during etching, which were etched using a Bosch process. The etched EMPs were washed three times in acetone, followed by three washes in 100% ethanol and lastly three times in distilled water. Prior to application the EMPs were removed from the silicon wafer.
The ability of silicon EMPs of various diameters to penetrate the skin was determined by application of a mixture of sodium fluorescein and EMPs to the volar forearm of four human, healthy volunteers using a plastic applicator as described in provisional patent application AU2012905650. 50 μL of the sodium fluorescein solution having a concentration of 1 mg/mL was mixed with 5 mg of silicon EMPs and applied to the forearm using a gentle massage motion with the applicator. […]
Three different populations of EMPs were used to assess the influence of EMP diameter on penetration and delivery. […] Grouped data was analysed using a one-way ANOVA with a Tukey's multiple comparison test.

[5] = test system: excised human skin
Description: Both ex vivo and in vivo tissue samples were analysed en face using fluorescence (excited at 488 nm) and reflectance (excited at 750 nm) confocal microscopy (Vivascope® 1500 Multilaser, Lucid Inc., USA). The microscope also consisted of a dermatoscope, which was used to image and position the skin prior to microscopy. The samples were optically sectioned at 1.5 μm intervals from the surface of the skin down to a depth of 150 μm. Each optical slice consisted of a focal area of 500×500 μm^2.
In relation to the sodium fluorescein signal, an area 300×300 μm^2 in size was selected in the center of the image and the raw integrated density was measured throughout the entire stack. The data were then divided by the analysed area (9000 μm^2) resulting in the sodium fluorescein integrated density per μm^2.
A mixture was formed of by taking 50 μl of sodium fluorescein dye (1 mg/mL) and mixed with or without 5 mg of silica EMP This mixture was applied to previously frozen or freshly excised human skin under varying conditions of EMP length and/or application force.
The skin was stored at −20° C. and then brought to room temperature prior to use. […] It is measured by dividing the sodium fluorescein pixel intensity achieved with EMPs by the sodium fluorescein pixel intensity achieved without EMPs. […]

[6] = test system: vaginal tracts of mice; details: mouse, in vivo
Description: In these in vivo mouse experiments, a 10 μl quantity of sodium fluorescein (1 mg/ml) was pipetted into the vaginal tracts of mice. In one group of mice, dye application occurred only after prior application of a small quantity of EMP (5 mg). The dye solution was gently massaged with a rod-like applicator. Vaginal tracts were removed at sacrifice and mounted for cryosectioning.

[7] = test system: excised pig skin
Description: Excised pig ears sourced from a local abattoir were washed with soap and water followed by rinsing. The ears were stored at −20° C. until required. The ears were thawed and then gently shaved to remove excessive hair, then rinsed and pat dried. The ventral side of the ear was then separated from the cartilage using a scalpel. The excised skin was pinned down on a cork-board maintaining slight tension across the surface. For EMP delivery, 50 μL of the payload solution (1 mg/mL sodium fluorescein, 0.01 mCi/mL vitamin A or 0.01 mCi/mL, vitamin B3 respectively) was gently mixed with 5 mg of either the ‘short’ or ‘long’ EMP preparations. The samples were then scraped onto the surface of the skin.
Administration was achieved by massaging the payload mixture for 30 s using small circular motions within a 3 cm 2 circular area. […] After administration, the payload was left on the skin for 5 min followed by removal of excess solution with cotton swabs. The center of the application area was excised using a 6 mm circular punch biopsy. A total of 6 samples were done per group. Each sample was stored at −20° C. prior to analysis.
The integrated density of sodium fluorescein is directly related to the concentration of the drug within the skin. […] In this case, skin was pinned out taut on a cork board, epidermal side uppermost. Tritiated compound was applied to the skin surface and left for 15 minutes. […]

[8] = test system: skin of human volunteers; details: in vivo
Description: Mixtures were formed by taking 50 μl of sodium fluorescein dye (1 mg/mL), with or without 5 mg of silica EMP. […] FIG. 18f refers to the sum of the total sodium fluorescein integrated density within the skin. The level of significance was accepted at p<0.05 based on a one-way ANOVA, Tukey's multiple comparison test.

For O=C([O-])c1ccccc1-c1c2ccc(=O)cc-2oc2cc([O-])ccc12.[Na+].[Na+] [sodium fluorescein], the “increase in delivery of sodium fluorescein dye across the stratum corneum” value [1] was “several-fold increase”, the “fluorescence detected below the surface of the skin” value [2] was “minimal fluorescence” and the “fluorescence detected below the surface of the skin” value [3] was “Minimal fluorescence”. For the same compound, the sodium fluorescein signal [3] was “greater signal”, the “amount of sodium fluorescein detected” value [4] was “no significant difference” and the “amount of sodium fluorescein penetrated (into the stratum spinosum)” value [5] was “greatest amount”. For the same compound, the “transdermal delivery of sodium fluorescein dye” value [5] was “greatly enhance”, the “penetration depth within the epithelium” value [6] was “about 60 μm” and the “penetration depth within the epithelium relative to delivery in the absence of EMP” value [6] was “more than 4 times”. For the same compound, the “enhancement of penetration of sodium fluorescein” value [7] was “superior ability” and the “penetration of topically applied sodium fluorescein” value [8] was “more lasting and deeper penetration”.
